{
  "source": "ChEMBL document CHEMBL5360655",
  "about": "“Design, Synthesis, and Biological Evaluation of Novel P2X7 Receptor Antagonists for the Treatment of Septic Acute Kidney Injury” (J Med Chem, 2023)",
  "key": {"[1]": {"test": "Cmax in BALB/c mouse at 10 mg/kg, iv measured for 24 hrs by LC-MS/MS analysis", "type": "ADME, organism-based", "set-up": "time 24 hrs, dose 10 mg/kg, route iv", "settings": "in vivo"}, "[2]": {"test": "Toxicity in C57BL/6J mouse assessed as pathological changes in lungs at 20 mg/kg, ip administered twice at 0 hrs and 8 hrs and measured after 16 hrs by Hematoxylin-Eosin staining based analysis", "type": "organism-based", "settings": "in vivo"}, "[3]": {"test": "Tmax in BALB/c mouse at 10 mg/kg, po measured for 24 hrs by LC-MS/MS analysis", "type": "ADME, organism-based", "settings": "in vivo"}, "[4]": {"test": "Clearance in BALB/c mouse at 10 mg/kg, ip measured for 24 hrs by LC-MS/MS analysis", "type": "ADME, organism-based", "settings": "in vivo"}, "[5]": {"test_system": "Mus musculus", "test": "(§1) Reno-protective activity against CLP-induced acute kidney injury C57BL/6J mouse model assessed as decrease in NLRP3 mRNA expression in kidney at 20 mg/kg, ip administered twice at 30 mins prior to CLP operation and 8 hrs post-CLP operation and measured at 16 hrs post-CLP operation by RT-qPCR analysis", "type": "functional, organism-based", "settings": "time 16.5 hrs"}, "[6]": {"test": "Half life in human liver microsomes", "type": "ADME, Microsome"}, "[7]": {"test": "Ratio of MTD in ip dosed C57BL/6J mouse to MED for reno-protective activity against ip dosed LPS-induced acute kidney injury C57BL/6J mouse model", "type": "ADME, organism-based", "settings": "in vivo"}, "[8]": {"test_system": "Mus musculus", "test": "Reno-protective activity against CLP-induced acute kidney injury C57BL/6J mouse model assessed as decrease in serum […] level at 20 mg/kg, ip administered twice at 30 mins prior to CLP operation and 8 hrs post-CLP operation and measured at 16 hrs post-CLP operation", "type": "functional, organism-based", "settings": "time 16.5 hrs"}, "[9]": {"molecular_target": "T1, P2X purinoceptor 7 (Mus musculus) (UniProt Q9Z1M0)", "T1 sequence (whole entry)": "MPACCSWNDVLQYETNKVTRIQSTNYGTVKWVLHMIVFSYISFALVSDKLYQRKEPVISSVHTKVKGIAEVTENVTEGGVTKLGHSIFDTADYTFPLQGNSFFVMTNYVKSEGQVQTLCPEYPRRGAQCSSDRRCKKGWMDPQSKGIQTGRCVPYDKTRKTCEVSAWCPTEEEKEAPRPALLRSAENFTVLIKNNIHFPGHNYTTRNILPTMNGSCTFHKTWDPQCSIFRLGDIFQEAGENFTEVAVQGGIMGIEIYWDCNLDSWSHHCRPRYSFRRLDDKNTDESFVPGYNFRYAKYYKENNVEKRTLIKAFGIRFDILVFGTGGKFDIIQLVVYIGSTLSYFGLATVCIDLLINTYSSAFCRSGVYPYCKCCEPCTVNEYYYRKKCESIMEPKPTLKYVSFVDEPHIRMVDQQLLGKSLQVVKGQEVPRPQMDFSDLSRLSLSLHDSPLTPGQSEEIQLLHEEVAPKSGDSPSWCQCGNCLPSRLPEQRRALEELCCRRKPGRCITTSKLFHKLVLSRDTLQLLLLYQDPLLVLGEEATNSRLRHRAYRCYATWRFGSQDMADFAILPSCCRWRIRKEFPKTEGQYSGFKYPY", "test": "Antagonist activity at mouse P2X7 receptor expressed in HEK293 cells assessed as inhibition of ATP-induced receptor pore formation at 200 nM by propidium iodide dye uptake based fluorescence analysis", "type": "cell-based", "settings": "filed as antagonist"}, "[10]": {"test_system": "Mus musculus", "test": "as §1, with “IL-1 beta” for “NLRP3”", "type": "functional, organism-based", "settings": "time 16.5 hrs"}, "[11]": {"test_system": "HEK293", "test": "Cytotoxicity against human HEK293 cells transfected with human P2X7 receptor assessed as effect on cell viability at 1 to 4 uM incubated for 2 hrs by CCK8 assay", "type": "toxicity, cell-based", "settings": "hek293, 2 h, dose 1-4 µM"}, "[12]": {"test_system": "Mus musculus", "test": "as §1, with “cleaved caspase 1 (p20) protein” for “NLRP3 mRNA”, “western blot” for “RT-qPCR”", "type": "functional, organism-based", "settings": "time 16.5 hrs"}, "[13]": {"test": "Half life in BALB/c mouse at 10 mg/kg, po measured for 24 hrs by LC-MS/MS analysis", "type": "ADME, organism-based", "settings": "in vivo"}, "[14]": {"test_system": "Mus musculus", "test": "as §1, with “Il1b gene” for “NLRP3 mRNA”, “RNA sequencing” for “RT-qPCR”", "type": "functional, organism-based", "settings": "time 16.5 hrs"}, "[15]": {"molecular_target": "T2, P2X purinoceptor 7 (Homo sapiens) (UniProt Q99572)", "T2 sequence (whole entry)": "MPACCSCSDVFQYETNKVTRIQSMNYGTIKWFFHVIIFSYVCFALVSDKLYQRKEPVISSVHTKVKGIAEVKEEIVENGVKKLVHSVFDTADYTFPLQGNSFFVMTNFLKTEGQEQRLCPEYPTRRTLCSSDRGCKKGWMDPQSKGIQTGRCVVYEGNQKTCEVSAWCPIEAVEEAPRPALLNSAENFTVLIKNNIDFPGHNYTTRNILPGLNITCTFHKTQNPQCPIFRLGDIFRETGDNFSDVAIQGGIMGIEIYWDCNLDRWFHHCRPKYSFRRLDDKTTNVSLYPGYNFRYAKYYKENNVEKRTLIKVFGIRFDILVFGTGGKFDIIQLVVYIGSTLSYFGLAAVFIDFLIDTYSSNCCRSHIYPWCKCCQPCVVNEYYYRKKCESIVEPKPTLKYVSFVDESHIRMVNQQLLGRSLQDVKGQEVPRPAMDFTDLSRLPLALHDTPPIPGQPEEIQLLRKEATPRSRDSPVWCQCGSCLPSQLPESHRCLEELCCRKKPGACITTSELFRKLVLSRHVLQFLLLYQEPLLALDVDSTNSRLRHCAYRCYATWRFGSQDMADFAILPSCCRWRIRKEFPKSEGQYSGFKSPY", "test": "Antagonist activity at human P2X7 receptor expressed in HEK293 cells assessed as inhibition of ATP-induced receptor pore formation at 200 nM by propidium iodide dye uptake based fluorescence analysis", "type": "cell-based", "settings": "filed as antagonist"}, "[16]": {"test": "Half life in BALB/c mouse at 10 mg/kg, ip measured for 24 hrs by LC-MS/MS analysis", "type": "ADME, organism-based", "settings": "in vivo"}, "[17]": {"test_system": "Mus musculus", "test": "as §1, with “Il17 gene” for “NLRP3 mRNA”, “RNA sequencing” for “RT-qPCR”", "type": "functional, organism-based", "settings": "time 16.5 hrs"}, "[18]": {"test_system": "Mus musculus", "test": "Reno-protective activity against LPS-induced acute kidney injury C57BL/6J mouse model assessed as decrease in tubular injury by measuring improvement of infiltration of inflammatory cells at 5 to 20 mg/kg, ip administered twice at 30 mins prior to LPS challenge and 8 hrs post-LPS challenge and measured at 16 hrs post-LPS challenge by Hematoxylin-Eosin staining based analysis", "type": "functional, organism-based", "settings": "dose 5-20 mg/kg, time 16.5 hrs"}, "[19]": {"test_system": "Mus musculus", "test": "as §1, with “Casp1 gene” for “NLRP3 mRNA”, “RNA sequencing” for “RT-qPCR”", "type": "functional, organism-based", "settings": "time 16.5 hrs"}, "[20]": {"test_system": "THP-1", "test": "Inhibition of ATP-induced apoptosis in human THP-1 cells at […] pretreated with compound for 3 hrs in presence of LPS followed by incubation with ATP for 1 hr by PI/Hoechst staining based fluorescence microscopic analysis", "type": "functional, cell-based", "settings": "dose 2.5 µM, time 4.0 hrs"}},
  "note": "Active and inactive are the calls of the source. The calls are words filed in the database; no cut-off is given here.",
  "data": [
    {"smiles": "CS(=O)(=O)c1ccc(-c2nc(C(=O)NCc3cn(-c4cc(Br)ccn4)nn3)cs2)cc1", "values": [
      {"measurement": "Cmax", "setting": "[1]", "result": 4730, "unit": "ng/mL"},
      {"measurement": "Activity", "setting": "[2]", "result": "Non-Toxic"},
      {"measurement": "Tmax", "setting": "[3]", "result": 1.17, "unit": "h"},
      {"measurement": "CL/F", "setting": "[4]", "result": 12.7, "unit": "mL/min/kg"},
      {"measurement": "Activity", "setting": "[5]", "result": "Active"},
      {"measurement": "half-life", "setting": "[6]", "result": 1.75, "unit": "h"},
      {"measurement": "selectivity ratio", "setting": "[7]", "result": 80},
      {"measurement": "Activity", "setting": "[8]", "result": "Active"},
      {"measurement": "inhibition", "setting": "[9]", "result": 101, "unit": "%"},
      {"measurement": "Activity", "setting": "[10]", "result": "Active"},
      {"measurement": "Activity", "setting": "[11]", "result": "Non-Toxic"},
      {"measurement": "Activity", "setting": "[12]", "result": "Active"},
      {"measurement": "half-life", "setting": "[13]", "result": 1.92, "unit": "h"},
      {"measurement": "Activity", "setting": "[14]", "result": "Active"},
      {"measurement": "inhibition", "setting": "[15]", "result": 92, "unit": "%"},
      {"measurement": "half-life", "setting": "[16]", "result": 6.12, "unit": "h"},
      {"measurement": "Activity", "setting": "[17]", "result": "Active"},
      {"measurement": "Activity", "setting": "[18]", "result": "Dose-Dependent Effect"},
      {"measurement": "Activity", "setting": "[19]", "result": "Active"},
      {"measurement": "inhibition", "setting": "[20]", "result": "Active"}
    ]}
  ]
}
